Experimental findings from US9549912B2, “Methods for treating atrial fibrillation” (Armetheon, Inc., priority 2009, dated 2017) are described below.

The subject of data set [1] is subjects with paroxysmal atrial fibrillation who had implanted pacemakers. Put plainly: Proof of concept study of ATI-2042 in PAF patients with pacemakers: AF burden and AF episodes (Example 1). The format is in vivo, human. The text has this:
Epub 2009 Jan. 26). This study was a proof of concept design seeking preliminary information on the pharmacodynamic effects, safety, and tolerability of the investigational drug ATI-2042 at a variety of doses, in patients with PAF. Patients with advanced DDDRP pacemakers were selected because of the pacemaker's sophisticated diagnostics and the ability to record continuously and log asymptomatic as well as symptomatic episodes. Only post-menopausal or surgically sterile females with a significant PAF burden and pacemakers were included in this study. The pacemakers had to have been in situ for at least 1 month prior to the study and have appropriate arrhythmia diagnostics. In this study, Vitatron pacemakers, models Selection 9000 or T70 pacemakers, were used. […] Although this finding was explored further, it was prudent to commence clinical testing in a population not at risk for this effect. […] The patients underwent screening assessments to assess suitability for the study and to obtain a baseline medical history and examination. The value of this cohort was that the pacemaker was not inserted for bradycardia but for the treatment of AF using various prevention pacing and rate control techniques. The inclusion criteria were as follows: age 18-85 years; […] The initial ATI-2042 dosage for all subjects was 200 mg orally bid, and it was then increased by 200 mg bid for each subsequent study period. Patients received 200 mg bid of ATI-2042 during period 2, 400 mg bid during period 3, 600 mg bid during period 4 and 800 mg bid during period 5, and no drug was administered during baseline and washout periods. “Selection 9000” and “T70” pacemakers (Vitatron, […], The Netherlands) are dual-chamber pacemakers with sophisticated and similar algorithms for AF detection and prevention. Atrial fibrillation detection is based on atrial rate; atrial tachyarrhythmias are detected when the median atrial cycle length is less than that programmed for AT or AF detection. In all patients, atrial fibrillation was detected if the atrial rate was >200 bpm for six consecutive beats, and its end logged if the atrial rate dropped below 200 bpm for 10 beats. […] Pacemaker anti-arrhythmic algorithms were turned off prior to entry into the baseline period and remained turned off until after washout. […] The primary outcome measure, AFB, was defined as the duration of time the subject's cardiac rhythm was AF divided by the total time recorded for that study period, expressed as percent. The total duration of time that the rhythm was AF is a function of the number of PAF episodes and the duration of each episode. Therefore, a reduction in AFB can occur through reduction in either or both of these variables. Atrial fibrillation burden was compared with baseline during the treatment periods. Secondary outcome measures were the number of AF episodes, the safety of ATI-2042, and the incidence and severity of adverse events (AEs). […] Atrial fibrillation burden is given as the percentage of total storage duration. The sample size for this study was selected empirically. All patients who received any amount of study medication were included in the efficacy and safety analysis. Efficacy variables for the study group are described as mean and standard deviation for each study period. Due to the small number of subjects, comparisons of periods 2-6 with baseline were made using estimates from a mixed-effects regression model.

Data set [2] addresses cytochrome P450 2C9 (CYP2C9) (Homo sapiens, UniProt P11712). Put plainly: CYP2C9 inhibition. The format is in vitro ADME.
Data set [3] is described as follows: Trough plasma concentrations of ATI-2042 and metabolites (Example 1). The format is in vivo, human. How it is done: Patients were enrolled within 8 weeks of screening. During the study, they were reviewed on days 1, 2, and 8 of each study period. ATI-2042 was increased on day 1 of each 2-week study period, following routine bloods for haematology, biochemistry, and coagulation screens. Plasma samples for pharmacokinetic analysis of ATI-2042 and its metabolites were taken at steady state at the end of each study period just prior to the first escalated dose of the subsequent period and within 15 min prior to the pre-dose ECG for that dose.
Trough concentrations of ATI-2042 and its metabolites (ATI-2000, ATI-2100, and ATI-2142), measured at pre-dose on day 1 of each of the four treatment periods and on days 1 and 8 of the washout period, were summarized by time point. Spearman's rank correlation was used to examine the relationship between trough concentrations of ATI-2042 and AFB.

Entries after “also recorded” stand apart in the source; their conditions may differ.

Chain of cytochrome P450 2C9 (CYP2C9) (P11712 whole entry): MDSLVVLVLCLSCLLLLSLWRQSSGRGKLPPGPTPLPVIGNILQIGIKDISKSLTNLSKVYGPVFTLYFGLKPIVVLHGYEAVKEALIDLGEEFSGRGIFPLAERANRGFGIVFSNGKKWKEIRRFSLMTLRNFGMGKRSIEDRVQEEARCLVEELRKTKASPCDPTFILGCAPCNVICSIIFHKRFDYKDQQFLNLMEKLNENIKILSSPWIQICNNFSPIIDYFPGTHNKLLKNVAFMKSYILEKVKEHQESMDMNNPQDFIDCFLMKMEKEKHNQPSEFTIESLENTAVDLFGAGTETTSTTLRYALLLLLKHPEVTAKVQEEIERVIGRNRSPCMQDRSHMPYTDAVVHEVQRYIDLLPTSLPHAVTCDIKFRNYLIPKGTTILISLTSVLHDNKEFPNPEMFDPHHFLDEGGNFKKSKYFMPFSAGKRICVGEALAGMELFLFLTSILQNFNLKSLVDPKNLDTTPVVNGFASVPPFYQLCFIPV

For “(S)-sec-butyl 2-(3-(4-(2-(diethylamino)ethoxy)-3,5-diiodobenzoyl)benzofuran-2-yl)acetate [ATI-2042]”, the “mean AFB (SD)” value is recorded as 5.2+4.2% in data set [1] (200 mg bid (p2), baseline 20.3+14.6%); 5.2+5.2% in data set [1] (400 mg bid (p3)); 2.8+3.4% in data set [1] (600 mg bid (p4)); 1.5 ± 0.5% in data set [1] (800 mg bid (p5)); 11.7+14.0% in data set [1] (washout (p6), no drug). The “effect on AFB in refractory PAF patients” value in data set [1] (all doses) is listed as “significantly effective in reducing AFB at all doses”. In addition, the “decrease in AFB” value in data set [1] (all doses (200-800 mg bid)) is “at least 70%”. For the same substance, in data set [1] (on drug, remained elevated in washout), the “number of AF episodes” value is on record as “increased initially”. Besides, the “relative reduction (RR) in AFB from baseline” value was determined as 71.2 ± 31.3% in data set [1] (p2, 200 mg bid); 71.7 ± 20.6% in data set [1] (p3, 400 mg bid); 79.9 ± 26.4% in data set [1] (p4, 600 mg bid); 86.8 ± 9.8% in data set [1] (p5, 800 mg bid). The “mean episode duration (SD)” value is given as 1.7+2.5 h in data set [1] (p2, 200 mg bid, baseline 4.8+5.2); 0.6+0.7 h in data set [1] (p3, 400 mg bid); 0.1+0.2 h in data set [1] (p4, 600 mg bid); 0.5+0.7 h in data set [1] (p5, 800 mg bid); 2.4+3.0 h in data set [1] (washout). The CYP2C9 inhibition result in data set [2] was “inhibitor; also recorded: inhibit CYP2C9”. Also, the “mean trough level of ATI-2042” value stood at 2.4 ± 0.9 ng/mL in data set [3] (200 mg bid, steady state); 5.2 ± 1.7 ng/mL in data set [3] (400 mg bid); 13.1 ± 5.6 ng/mL in data set [3] (600 mg bid); 19.8 ± 17.9 ng/mL in data set [3] (800 mg bid). In data set [3] (washout), the “trough level of ATI-2042” value is given as 0.3+0.4 ng/mL.
